Patent US20150218212A1, “FLUORINATED EPOXYKETONE-BASED TETRAPEPTIDE COMPOUNDS AND USES THEREOF AS PROTEASOME INHIBITORS” (FLUORINOV PHARMA INC., priority 2012, published 2015)

How the values were obtained:
[1] = target: T1, proteasome Trypsin-like (T-L) activity (Mus musculus, UniProt P70195+Q9R1P1); assay: Pharmacodynamic proteasome activity in murine red blood cells, T-L; format: in vivo, NOD/SCID mice; conditions: iv, mice, 2 mg/kg i.v., time 0, read-out: Trypsin-like (T-L) mean residual activity relative to vehicle treated controls
T1 construct: RBCs were lysed with assay lysis buffer and incubated on ice for 30 minutes; from tissue; host or cells: red blood cells of NOD/SCID mice
Protocol: Cells were harvested by centrifugation at 1,200 rpm at room temperature. Cell pellets were washed with PBS (phosphate buffered saline) and lysed with assay lysis buffer (50 mM HEPES (N-2-hydroxyethylpiperazine-N′-2-ethanesulfonic acid), pH 7.5; 150 mM NaCl; 1% Triton X-100; 2 mM ATP). Cell lysates were incubated on ice for 30 minutes, mixed by vortex every 5 minutes, and then centrifuged at 12,000 g for 10 minutes. The supernatant was transferred to a 96-well plate. For each assay, 10 μg of total protein were incubated for 1 hour at 37° C. with increasing concentrations (1 nM to 10 μM) of test compound diluted in assay buffer (50 mM tris-HCl (tris(hydroxymethyl)aminomethane-HCl), pH 7.5; 150 mM NaCl). DMSO alone was used as a control in every assay plate. After incubation, a specific fluorogenic proteasome substrate was added to each assay reaction at a final concentration of 40 μM in a total volume of 100 μL. N-Succinyl-Leu-Leu-Val-Tyr-7-amino-4-methylcoumarin (Suc-Leu-Leu-Val-Tyr-AMC) was used for measuring chymotrypsin-like (CT-L) activity, t-butoxycarbonyl-Leu-Arg-Arg-7-amino-4-methylcoumarin (Boc-Leu-Arg-Arg-AMC) for trypsin-like (T-L) activity, and benzyloxycarbonyl-L-leucyl-L-leucyl-L-glutamyl-7-amino-4-methylcoumarin (Z-Leu-Leu-Glu-AMC) for caspase-like (C-L) activity. The excitation wavelength was set at 360 nm and the fluorescence emission wavelength of AMC was detected at 460 nm. The fluorescence of free AMC released during the enzymatic reaction was measured with a SpectraMax M5 fluorescent spectrophotometric plate reader (Molecular Devices, Sunnyvale, Calif.). AMC release rate was measured at 37° C. in a kinetic mode, recording every 5 minutes for 30 minutes. Experiments were performed in triplicate and repeated at least twice.
All mouse experiments were performed in accordance with approval from the Ontario Cancer Institute institutional animal review board. Five- to six-week-old male non-obese diabetic/severe combined immunodeficient (NOD/SCID) mice were grouped randomly (n=3 mice per group). Mice were administered vehicle (5% DMSO, 20% Cremophor) or compounds of Formula I at different doses either intravenously or by oral gavage, and venous blood samples (20-50 μL) were collected from each mouse over 24 hours. Blood samples were mixed with heparin (APP Pharmaceuticals; Schaumburg, Ill.) in 0.5 mL tubes in accordance with the manufacturer's instructions. After centrifugal separation at 3,000 g for 10 minutes, red blood cells (RBCs) in the bottom layer were transferred into a new tube and stored at −70° C. until use. RBCs were lysed with assay lysis buffer and incubated on ice for 30 minutes, mixing by vortex every 5 minutes, and then centrifuged at 12,000 g for 10 minutes. The supernatant was transferred to a 96-well plate and proteasome activity was measured as described above for tumor cell lysates.
Proteasome subunit activity (Chymotrypsin-like, Trypsin-like, Caspase-like, CT-L, T-L, C-L, respectively) were monitored over the course of 24 hrs following […] administration of representative compounds of Formula I. NOD/SCID mice were treated with compounds of Formula I (2 mg/kg by iv administration) or vehicle control and carfilzomib for up to 24 hours, as described above. Table 9 summarizes the data on pharmacodynamic activity of representative compounds of Formula I following a dose of 2 mg/kg intravenous (i.v) administration to mice. Data are presented as mean residual activity (SEM) relative to vehicle treated controls.

[2] = test system: A498; assay: NCI screening panel, A498 (Renal Cancer); format: cell-based, human
Protocol: Representative compounds of Formula I were screened using the National Cancer Institute (NCI) screening panel, which consists of a panel of human tumor cell lines, representing leukemia, melanoma, and cancers of the lung, colon, ovary, breast, prostate and renal system.
After 24 h, two plates of each cell line are fixed in situ with TCA, to represent a measurement of the cell population for each cell line at the time of drug addition (Tz). Experimental drugs are solubilised in dimethyl sulfoxide at 400-fold the desired final maximum test concentration and stored frozen prior to use. At the time of drug addition, an aliquot of frozen concentrate is thawed and diluted to twice the desired final maximum test concentration with complete medium containing 50 μg/mL gentamicin. Additional four, 10-fold or ½ log serial dilutions are made to provide a total of five drug concentrations plus control. Aliquots of 100 μl of these different drug dilutions are added to the appropriate microtiter wells already containing 100 μl of medium, resulting in the required final drug concentrations.
Following drug addition, the plates are incubated for an additional 48 h at 37° C., 5% CO2, 95% air, and 100% relative humidity. For adherent cells, the assay is terminated by the addition of cold TCA (trichloroacetic acid). Cells are fixed in situ by the gentle addition of 50 μl of cold 50% (w/v) TCA (final concentration, 10% TCA) and incubated for 60 minutes at 4° C. The supernatant is discarded, and the plates are washed five times with tap water and air dried. Sulforhodamine B (SRB) solution (100 μl) at 0.4% (w/v) in 1% acetic acid is added to each well, and plates are incubated for 10 minutes at room temperature. After staining, unbound dye is removed by washing five times with 1% acetic acid and the plates are air dried. Bound stain is subsequently solubilised with 10 mM trizma base, and the absorbance is read on an automated plate reader at a wavelength of 515 nm. For suspension cells, the methodology is the same except that the assay is terminated by fixing settled cells at the bottom of the wells by gently adding 50 μl of 80% TCA (final concentration, 16% TCA). Using the seven absorbance measurements [time zero, (Tz), control growth, (C), and test growth in the presence of drug at the five concentration levels (Ti)], the percentage growth is calculated at each of the drug concentrations levels. Percentage growth inhibition is calculated as: [(Ti−Tz)/(C−Tz)]×100 for concentrations for which Ti>/=Tz and [(Ti−Tz)/Tz]×100 for concentrations for which Ti<Tz.
Three dose response parameters are calculated for each experimental agent. Growth inhibition of 50% (GI50) is calculated from [(Ti−Tz)/(C−Tz)]×100=50, which is the drug concentration resulting in a 50% reduction in the net protein increase (as measured by SRB staining) in control cells during the drug incubation. The drug concentration resulting in total growth inhibition (TGI) is calculated from Ti=Tz. The LC50 (concentration of drug resulting in a 50% reduction in the measured protein at the end of the drug treatment as compared to that at the beginning) indicating a net loss of cells following treatment is calculated from [(Ti−Tz)/Tz]×100=−50. Values are calculated for each of these three parameters if the level of activity is reached. However, if the effect is not reached or is exceeded, the value for that parameter is expressed as greater or less than the maximum or minimum concentration tested.

| SMILES | remaining activity at 2 mg/kg [1] [%] | Log10GI50 [2] | Log10LC50 [2] | Log10TGI50 [2] |
| --- | --- | --- | --- | --- |
| CC(C)C[C@H](NC(=O)[C@H](COC(F)F)NC(=O)CN1CCOCC1)C(=O)N[C@@H](COC(F)F)C(=O)N[C@@H](CC(C)C)C(=O)[C@@]1(C)CO1 [Example 1, (2S)—N-[(1S)-1-(difluoromethoxymethyl)-2-[[(1S)-3-methyl-1-[(2R)-2-methyloxirane-2-carbonyl]butyl]amino]-2-oxo-ethyl]-2-[[(2S)-3-(difluoromethoxy)-2-[(2-morpholinoacetyl)amino]propanoyl]amino]-4-methyl-pentanamide] | 100 | −7.59 | −6.06 | −6.93 |
| CC(C)C[C@H](NC(=O)[C@H](COC(F)F)NC(=O)CN1CCOCC1)C(=O)N[C@@H](Cc1ccccc1)C(=O)N[C@@H](CC(C)C)C(=O)[C@@]1(C)CO1 [Example 2, (2S)-N-[(1S)-1-benzyl-2-[[(1S)-3-methyl-1-[(2R)-2-methyloxirane-2-carbonyl]butyl]-amino]-2-oxo-ethyl]-2-[[(2S)-3-(difluoromethoxy)-2-[(2-morpholinoacetyl)amino]propanoyl]amino]-4-methyl-pentanamide] | 100 | −7.67 | −6.23 | −7.12 |
| CC(C)C[C@H](NC(=O)[C@H](COC(F)F)NC(=O)CN1CCOCC1)C(=O)N[C@@H](Cc1ccccc1)C(=O)N[C@@H](Cc1ccccc1)C(=O)[C@@]1(C)CO1 [Example 3, (2S)-N-[(1S)-1-benzyl-2-[[(1S)-1-benzyl-2-[(2R)-2-methyloxiran-2-yl]-2-oxo-ethyl]amino]-2-oxo-ethyl]-2-[[(2S)-3-(difluoromethoxy)-2-[(2-morpholinoacetyl)-amino]propanoyl]amino]-4-methyl-pentan-amide] | 100 | −7.97 | −6.34 | −7.26 |
| CC(C)C[C@H](NC(=O)[C@H](COC(F)F)NC(=O)CN1CCOCC1)C(=O)N[C@@H](COC(F)F)C(=O)N[C@@H](Cc1ccccc1)C(=O)[C@@]1(C)CO1 [Example 4, (2S)-N-[(1S)-2-[[(1S)-1-benzyl-2-[(2R)-2-methyloxiran-2-yl]-2-oxo-ethyl]amino]-1-(difluoromethoxymethyl)-2-oxo-ethyl]-2-[[(2S)-3-(difluoromethoxy)-2-[(2-mor-pholinoacetyl)amino]propanoyl]amino]-4 methyl-pentanamide] | 100 | −7.42 | −5.65 | −6.61 |
| CC(C)C[C@H](NC(=O)[C@H](COC(F)F)NC(=O)[C@H](COC(F)F)NC(=O)[C@H](CCc1ccccc1)NC(=O)CN1CCOCC1)C(=O)[C@@]1(C)CO1 [Example 7, (2S)-N-[(1S)-1-(difluoromethoxymethyl)-2-[[(1S)-1-(difluoromethoxymethyl)-2-[[(1S)-3-methyl-1-[(2R)-2-methyloxirane-2-carbo-nyl]butyl]amino]-2-oxo-ethyl]amino]-2-oxo-ethyl]-2-[(2-morpholinoacetyl)amino]-4-phenyl-butanamide] | 100 | −7.40 | −6.06 | −6.75 |
| CC(C)C[C@H](NC(=O)[C@H](Cc1ccccc1)NC(=O)[C@H](COC(F)F)NC(=O)[C@H](COC(F)F)NC(=O)CN1CCOCC1)C(=O)[C@@]1(C)CO1 [Example 11, (2S)-2-[[(2S)-3-(difluoromethoxy)-2-[[(2S)-3-(difluoromethoxy)-2-[(2-morpholinoacetyl)-amino]propanoyl]amino]propanoyl]amino]-N-[(1S)-3-methyl-1-[(2R)-2-methyloxirane-2-carbonyl]butyl]-3-phenyl-propanamide] | 100 | −7.64 | −6.08 | −7.00 |
| CC(C)C[C@H](NC(=O)[C@H](COC(F)F)NC(=O)[C@H](COC(F)F)NC(=O)[C@H](COC(F)F)NC(=O)CN1CCOCC1)C(=O)[C@@]1(C)CO1 [Example 17, (2S)-3-(difluoromethoxy)-N-[(1S)-1-(difluoromethoxymethyl)-2-[[(1S)-1-(difluoro-methoxymethyl)-2-[[(1S)-3-methyl-1-[(2R)-2-methyloxirane-2-carbonyl]butyl]amino]-2-oxo-ethyl]amino]-2-oxo-ethyl]-2-[(2-mor-pholinoacetyl)amino]-propanamide] | 100 | −6.87 | −5.44 | −6.22 |
